Assay results as given in patent publication US10570177B2, “P3 peptidylic inhibitors for treating CAG-repeat RNA toxicity in polyglutamine diseases” (The Chinese University of Hong Kong, priority 2017, dated 2020).
Several values for one entry are separate records, joined by “and”; a condition that tells them apart may be missing. Identical values can stand only once. Marks after values point to notes of the source that are not given here. Residues, ends and D or L forms follow the SMILES beside them. *: point of attachment. Palmitoyl = CCCCCCCCCCCCCCCC(=O)*

Tests used:
[1] = tested on: EGFPCAG78 RNA-expressing HEK293 cells; assay type: cell-based
Experimental: HEK293 cells were cultured at 37° C. with 5% CO2 in DMEM supplemented with 10% FBS and 1% penicillin-streptomycin. Primary rat cortical neurons were isolated and cultured as previously described^37. Transient transfection of HEK293 cells was performed using Lipofectamine 2000 (Life Technologies). P3V8 were delivered to HEK293 cells using the DeliverX (DX) Peptide Transfection Kit (Affymetrix) 4 hr after DNA transfection. At least two batches of independently synthesized peptides were used in the experiments.
HEK 293 cells were seeded on a 24-well plate at a density of 0.5×10^5, and pEGFPCAG78 DNA construct was used to transfect the cells. For P3V8 treatment, different concentrations of P3V8 as indicated in the figure were transfected by DeliverX transfectant 4 hr after DNA transfection. […] Seventy-two hours after treatment, LDH enzyme activity in the cell culture medium was measured as described before. Experimental groups were normalized to the untransfected control. After normalization, data were analyzed using the dose response-inhibition curve (nonlinear regression-variable slope) to determine the IC50 value (Prism6 software, GraphPad Software, Inc.). Each experiment was repeated at least 3 times.

DsRedCAG0 Drosophila = assay: Pseudopupil assay in DsRedCAG0 control Drosophila (toxicity of peptide); assay type: in vivo; conditions: up to 50 μM
Experimental: Because of the aim to develop P3V8 into a potent inhibitor that targets RNA toxicity in degenerating cells within the nervous system, it was assessed whether P3V8 had deleterious effects on neuronal cells by determining lactate dehydrogenase release in the culturing medium of rat cortical neurons.
Flies were raised at 21.5° C. on cornmeal medium supplemented with dry yeast. Fly lines bearing UAS-DsRedCAG0 and UAS-DsRedCAG100 were kind gifts of Professor Nancy Bonini (University of Pennsylvania, USA). The gmr-GAL4 fly line was obtained from Bloomington Drosophila Stock Center. For pseudopupil assay, third instar larvae were fed with various amount of respective peptides dissolved in 2% sucrose solution for 2 hr and then continued to culture in standard fly food at 21.5° C.^38. Pseudopupil assay was performed on 12 day-old adult flies as mentioned previously^39. Images were captured by SPOT Insight CCD camera controlled by the SPOT Advanced software (Diagnostic instruments Inc.). Image processing was performed using the Adobe Photoshop CS software (Adobe). Each experiment was repeated at least 3 times (n=10 fly heads), and consistent results were obtained. […] Viability from egg-to-adult was calculated as the number of adult flies collected divided by the number of eggs examined. […]

[2] = In vitro stability in rat brain homogenate; assay type: in vitro ADME; conditions: 37° C.
Experimental: (§1) Sprague-Dawley (SD) rats (male, 180-200 g) were supplied by the Laboratory Animal Services Centre at The Chinese University of Hong Kong. All animal studies were conducted under the approval of the Animal Ethics Committee of The Chinese University of Hong Kong, and were performed in accordance with relevant guidelines and regulations. Blank rat brain homogenate was prepared by ultrasonic probe homogenization (Micoson XL-2000, Misonix, Framingdale, N.Y., USA) of brains collected from the control rats. Blank rat plasma was prepared by centrifugation (8000 rcf for 3.5 min) of blood collected from control rats. […] The mixtures were incubated at 37° C. with 100 rpm in a water bath for 1 or 3 hr. The incubation was terminated by addition twice the volume of acetonitrile and centrifugation at 13000 rcf for 10 min. The supernatant was collected for LC/MS/MS analysis.

[3] = In vitro stability in rat plasma; assay type: in vitro ADME; conditions: 37° C.
Experimental: as §1

DsRedCAG100 flies = assay: Pseudopupil assay in DsRedCAG100 Drosophila (expanded CAG RNA neurodegeneration); assay type: in vivo; conditions: for suppression of neurotoxicity / retinal degeneration: DsRedCAG100 flies, in words
From the text: Here the DsRedCAG0/100Drosophila model was utilized to investigate the suppressive effects of the P3 analogs on RNA toxicity. In this model, the CAG repeat is located in the 3′ untranslated region of the DsRed reporter gene-=. The transcribed expanded CAG RNA is not translated into polyQ protein, and thus the toxicity is solely attributed to the expression of DsRedCAG100 RNA. In brief, the expression of expanded CAG RNA causes severe retinal degeneration in the animal that can be quantified by a pseudopupil assay^7. Inhibitors that can suppress neurotoxicity will result in the recovery of the number of rhabdomeres within the ommatidium. To test the derivatives, third instar larvae were fed different amounts of peptide dissolved in sucrose solution for 2 hr and then allowed to culture in standard fly food until the flies were 12 days old, at which time they were sacrificed for the pseudopupil assay.
Flies were raised at 21.5° C. on cornmeal medium supplemented with dry yeast. Fly lines bearing UAS-DsRedCAG0 and UAS-DsRedCAG100 were kind gifts of Professor Nancy Bonini (University of Pennsylvania, USA). The gmr-GAL4 fly line was obtained from Bloomington Drosophila Stock Center. For pseudopupil assay, third instar larvae were fed with various amount of respective peptides dissolved in 2% sucrose solution for 2 hr and then continued to culture in standard fly food at 21.5° C.^38. Pseudopupil assay was performed on 12 day-old adult flies as mentioned previously^39. Images were captured by SPOT Insight CCD camera controlled by the SPOT Advanced software (Diagnostic instruments Inc.). Image processing was performed using the Adobe Photoshop CS software (Adobe). Each experiment was repeated at least 3 times (n=10 fly heads), and consistent results were obtained. For viability test of wild-type flies from egg to adult stage, eggs born within 5 hr were collected and cultured in fly food containing 10 or 50 μM of respective peptides at 21.5° C. Viability from egg-to-adult was calculated as the number of adult flies collected divided by the number of eggs examined. Each experiment was repeated for three times (at least 130 eggs were examined in each group). Two batches of independently synthesized peptides were used in the experiments.

[4] = 1000 ng/mL, incubation for 1 hr
[5] = 2000 ng/mL, incubation for 1 hr, 60 min
[6] = 2000 ng/mL, incubation for 3 hr
[7] = 2000 ng/mL, incubation for 1 hr

CCCCCCCCCCCCCCCC(=O)N[C@@H](CC(=O)O)C(=O)NCC(=O)N[C@@H](CCCCN)C(=O)N[C@@H](CO)C(=O)N[C@@H](CCCCN)C(=O)NCC(=O)N[C@H](C(=O)N[C@@H](C)C(=O)N[C@@H](Cc1ccc(O)cc1)C(=O)N[C@H](C(=O)N[C@@H](CCC(=O)O)C(=O)N[C@@H](Cc1ccccc1)C(=O)N[C@@H](CCCCN)C(N)=O)[C@@H](C)CC)[C@@H](C)CC [L1P3V8] (Palmitoyl-DGKSKGIAYIEFK-NH2)
IC50 ([1]; 72 hr, read-out: IC50 (inhibition of cell death, LDH)): ~100 nM
effect on DsRedCAG0 Drosophila (DsRedCAG0 Drosophila): no cytotoxic effects
Pecentage of remained ([2]; 500 ng/mL, incubation for 1 hr): <20^# %
Pecentage of remained ([2]; 500 ng/mL, incubation for 3 hr): <20^# %
Pecentage of remained [2, 4]: 22.8 ± 1.2 %
Pecentage of remained ([2]; 1000 ng/mL, incubation for 3 hr): 15.8 ± 0.7%
Pecentage of remained [2, 5]: 45.0 ± 3.5 %
Pecentage of remained [2, 6]: ~21.2%
Pecentage of remained ([2]; 2000 ng/mL, incubation for 3 hr, 180 min): 21.2 ± 3.0%
remaining at 3 h, 2000 ng/mL ([2]; male, Sprague-Dawley, rat, tissue homogenate, 2000 ng/mL, incubation for 3 hr, read-out: Pecentage of remained): ~21%
Pecentage of remained ([3]; 500 ng/mL, incubation for 1 hr): 88.1 ± 4.9%
remaining at 1 h, 1000 ng/mL ([3]; male, Sprague-Dawley, rat, 1000 ng/mL, incubation for 1 hr, read-out: Pecentage of remained): 98.7 ± 3.9%
suppression of neurotoxicity / retinal degeneration (DsRedCAG100 flies): suppressed retinal degeneration

Ac-DGKSKGIAYIEFK-NH2 [P3V8]
effect on expanded CAG RNA-induced cytotoxicity [1]: effectively alleviate the cytotoxicity
effect on expanded CAG RNA-induced cell death ([1]; peptide alone, without DeliverX): did not exert any cellular effect
effect on DsRedCAG0 Drosophila (DsRedCAG0 Drosophila): did not show any observable effect
Pecentage of remained [2, 4]: 4.0 ± 1.6%
Pecentage of remained [2, 7]: 3.3%
Pecentage of remained [2, 5]: 3.3 ± 0.6%
Pecentage of remained [2, 6]: almost completely degraded
remaining at 1 h, 2000 ng/mL ([2]; male, Sprague-Dawley, rat, rat brain homogenate, 2000 ng/mL, incubation for 1 hr, read-out: Pecentage of remained): 3%
Pecentage of remained [3, 7]: 20.7% and 20.7 ± 3.3%
Pecentage of remained [3, 6]: almost completely degraded
remaining at 1 h, 2000 ng/mL ([3]; male, Sprague-Dawley, rat, rat plasma, 2000 ng/mL, incubation for 1 hr, read-out: Pecentage of remained): 21%
pseudopupil score (DsRedCAG100 flies; 1 μM treatment, 12 day-old flies): 4.32±0.25
suppression of neurotoxicity / retinal degeneration (DsRedCAG100 flies): significantly suppressed neurotoxicity
